Each block holds one compound with its values, some of them ahead of it.
Experiments:
[1] = target: T1, EGFR L858R/T790M/C797S (BaF3-LTC cells) (Homo sapiens, UniProt P00533, C797S/L858R/T790M); experiment: EGFR degradation HTRF assay, BaF3-LTC cells; type: cell-based; settings: BaF3-LTC, 16h treatment; for Dmax: maximum percentage of degradation, read-out: LTC Dmax (%); for DC50: read-out: LTC DC50
T1 construct: expressed in transfected cells; host or cells: BaF3
Summary of the method: (§1)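 Cells treated 16 h at 37 °C, 5% CO2 in medium with 0.2% DMSO; top final concentration 10 uM, 5-fold dilution, 8 doses. Lysates read by HTRF (665/620 nm); degradation % versus DMSO high control, DC50 from four-parameter fit, Dmax as maximal degradation.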

[2] = test system: EGFR Del19/T790M/C797S (BaF3-DTC cells); experiment: EGFR degradation HTRF assay, BaF3-DTC cells; type: cell-based; settings: 16h treatment; for DTC Dmax (%): maximum percentage of degradation; for DC50: read-out: DTC DC50
Summary of the method: as §1

T1 sequence (P00533 25-1210 T790M/C797S/L858R): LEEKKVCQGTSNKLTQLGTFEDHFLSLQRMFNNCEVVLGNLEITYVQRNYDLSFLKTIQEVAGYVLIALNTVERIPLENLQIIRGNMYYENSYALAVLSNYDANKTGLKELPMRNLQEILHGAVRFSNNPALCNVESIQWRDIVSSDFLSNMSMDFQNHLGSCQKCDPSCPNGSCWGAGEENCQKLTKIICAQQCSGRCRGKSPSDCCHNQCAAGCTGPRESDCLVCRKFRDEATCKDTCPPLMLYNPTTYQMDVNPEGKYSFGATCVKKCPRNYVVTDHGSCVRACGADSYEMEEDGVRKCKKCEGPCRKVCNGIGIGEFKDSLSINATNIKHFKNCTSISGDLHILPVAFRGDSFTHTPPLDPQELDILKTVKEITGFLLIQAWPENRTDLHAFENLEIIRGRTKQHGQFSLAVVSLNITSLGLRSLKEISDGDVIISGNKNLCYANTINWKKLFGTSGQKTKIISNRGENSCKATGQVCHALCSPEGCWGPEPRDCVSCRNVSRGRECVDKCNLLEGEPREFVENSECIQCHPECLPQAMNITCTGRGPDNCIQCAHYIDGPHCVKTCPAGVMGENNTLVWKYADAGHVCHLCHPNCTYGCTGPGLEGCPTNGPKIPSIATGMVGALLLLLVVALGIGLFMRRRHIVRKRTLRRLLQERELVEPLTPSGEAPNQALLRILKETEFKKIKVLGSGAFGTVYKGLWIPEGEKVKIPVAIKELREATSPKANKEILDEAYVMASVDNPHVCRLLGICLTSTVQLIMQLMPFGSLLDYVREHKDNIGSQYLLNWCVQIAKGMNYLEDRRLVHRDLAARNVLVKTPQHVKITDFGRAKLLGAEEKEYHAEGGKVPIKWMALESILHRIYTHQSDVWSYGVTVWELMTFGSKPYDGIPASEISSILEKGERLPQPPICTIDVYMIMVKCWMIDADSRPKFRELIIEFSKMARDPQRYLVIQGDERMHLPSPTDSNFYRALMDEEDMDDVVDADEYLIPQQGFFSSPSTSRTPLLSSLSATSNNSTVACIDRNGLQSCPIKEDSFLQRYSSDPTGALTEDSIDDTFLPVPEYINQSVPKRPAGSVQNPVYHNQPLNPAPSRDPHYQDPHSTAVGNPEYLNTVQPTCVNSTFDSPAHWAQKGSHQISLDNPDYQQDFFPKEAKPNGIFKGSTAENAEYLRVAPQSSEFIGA

Structure (SMILES): CCc1cc(Nc2ncc(Br)c(Nc3ccc4ncccc4c3P(C)(C)=O)n2)c(OC)cc1N1CCC(N2CCN(CCc3cc(F)c(C4CCC(=O)NC4=O)c(F)c3)CC2)CC1 (centres unmarked) [Example 201, 3-(4-(2-(4-(1-(4-((5-bromo-4-((5-(dimethylphosphoryl)quinolin-6-yl)amino)pyrimidin-2-yl)amino)-2-ethyl-5-methoxyphenyl)piperidin-4-yl)piperazin-1-yl)ethyl)-2,6-difluorophenyl)piperidine-2,6-dione]
Dmax [1]: 92%
DC50 [1]: 6.8 nM
DTC Dmax (%) [2]: 95.68%
DC50 [2]: 1.72 nM

Structure (SMILES): CCc1cc(Nc2ncc(Br)c(Nc3ccc4nccnc4c3P(C)(C)=O)n2)c(OC)cc1N1CCC(N2CCN(CCNc3cccc4c3CN(C3CCC(=O)NC3=O)C4=O)CC2)CC1 (centres unmarked) [Example 248, 3-(4-((2-(4-(1-(4-((5-bromo-4-((5-(dimethylphosphoryl)quinoxalin-6-yl)amino)pyrimidin-2-yl)amino)-2-ethyl-5-methoxyphenyl)piperidin-4-yl)piperazin-1-yl)ethyl)amino)-1-oxoisoindolin-2-yl)piperidine-2,6-dione]
Dmax [1]: 89.4%
DC50 [1]: 9.39 nM
DTC Dmax (%) [2]: 89.62%
DC50 [2]: 4.41 nM

Structure (SMILES): CCc1cc(Nc2ncc(Cl)c(Nc3ccc4nccnc4c3P(C)(C)=O)n2)c(OC)cc1N1CCC(N2CCN(CCC3CCN(c4cc(F)c(C5CCC(=O)NC5=O)c(F)c4)CC3)CC2)CC1 (centres unmarked) [Example 269, 3-(4-(4-(2-(4-(1-(4-((5-chloro-4-((5-(dimethylphosphoryl)quinoxalin-6-yl)amino)pyrimidin-2-yl)amino)-2-ethyl-5-methoxyphenyl)piperidin-4-yl)piperazin-1-yl)ethyl)piperidin-1-yl)-2,6-difluorophenyl)piperidine-2,6-dione]
Dmax [1]: 88.8%
DC50 [1]: 43.7 nM
DTC Dmax (%) [2]: 95.39%
DC50 [2]: 21.5 nM

Structure (SMILES): COc1cc(N2CCC(N3CCN(CCC4CCN(c5cc(F)c(C6CCC(=O)NC6=O)c(F)c5)CC4)CC3)CC2)c(C)cc1Nc1ncc(Br)c(Nc2ccc3nc(C)ccc3c2P(C)(C)=O)n1 (centres unmarked) [Example 217, 3-(4-(4-(2-(4-(1-(4-((5-bromo-4-((5-(dimethylphosphoryl)-2-methylquinolin-6-yl)amino)pyrimidin-2-yl)amino)-5-methoxy-2-methylphenyl)piperidin-4-yl)piperazin-1-yl)ethyl)piperidin-1-yl)-2,6-difluorophenyl)piperidine-2,6-dione]
Dmax [1]: 89.6%
DC50 [1]: 86.8 nM
DTC Dmax (%) [2]: 90.75%
DC50 [2]: 29.7 nM

Structure (SMILES): COc1cc(N2CCC(N3CCN(CCC4CCN(c5cc(F)c(C6CCC(=O)NC6=O)c(F)c5)CC4)CC3)CC2)ccc1Nc1ncc(Br)c(Nc2ccc3nccnc3c2P(C)(C)=O)n1 (centres unmarked) [Example 213, 3-(4-(4-(2-(4-(1-(4-((5-bromo-4-((5-(dimethylphosphoryl)quinoxalin-6-yl)amino)pyrimidin-2-yl)amino)-3-methoxyphenyl)piperidin-4-yl)piperazin-1-yl)ethyl)piperidin-1-yl)-2,6-difluorophenyl)piperidine-2,6-dione]
Dmax [1]: 88.6%
DC50 [1]: 21.1 nM
DTC Dmax (%) [2]: 94.05%
DC50 [2]: 4.71 nM

Structure (SMILES): CCc1cc(Nc2ncc(Br)c(Nc3ccc4nccnc4c3P(C)(C)=O)n2)c(OC)cc1N1CCC(N2CCN(C(=O)C3CN(c4ccc(C5CCC(=O)NC5=O)c(F)c4)C3)CC2)CC1 (centres unmarked) [Example 228, 3-(4-(3-(4-(1-(4-((5-bromo-4-((5-(dimethylphosphoryl)quinoxalin-6-yl)amino)pyrimidin-2-yl)amino)-2-ethyl-5-methoxyphenyl)piperidin-4-yl)piperazine-1-carbonyl)azetidin-1-yl)-2-fluorophenyl)piperidine-2,6-dione]
Dmax [1]: 81.8%
DC50 [1]: 19.8 nM
DTC Dmax (%) [2]: 79.14%
DC50 [2]: 3.49 nM

More lines, main results first:

Dmax [1]: 87.8%
DC50 [1]: 20 nM
DC50 [2]: 6.81 nM
Structure (SMILES): CCc1cc(Nc2ncc(C(C)=O)c(Nc3ccc4nccnc4c3P(C)(C)=O)n2)c(OC)cc1N1CCC(N2CCN(CCC3CCN(c4cc(F)c(C5CCC(=O)NC5=O)c(F)c4)CC3)CC2)CC1 (centres unmarked) [Example 703, 3-(4-(4-(2-(4-(1-(4-((5-acetyl-4-((5-(dimethylphosphoryl)quinoxalin-6-yl)amino)pyrimidin-2-yl)amino)-2-ethyl-5-methoxyphenyl)piperidin-4-yl)piperazin-1-yl)ethyl)piperidin-1-yl)-2,6-difluorophenyl)piperidine-2,6-dione]
DTC Dmax (%) [2]: 93.35%

Dmax [1]: 96%
DC50 [1]: 24.3 nM
DC50 [2]: 15.9 nM
Structure (SMILES): CCc1cc(Nc2ncc(Br)c(Nc3ccc4nccnc4c3P(C)(C)=O)n2)c(OC)cc1N1CCC(N2CCN(C(=O)CC3CCN(c4cc(F)c(C5CCC(=O)NC5=O)c(F)c4)CC3)CC2)CC1 (centres unmarked) [Example 274, 3-(4-(4-(2-(4-(1-(4-((5-bromo-4-((5-(dimethylphosphoryl)quinoxalin-6-yl)amino)pyrimidin-2-yl)amino)-2-ethyl-5-methoxyphenyl)piperidin-4-yl)piperazin-1-yl)-2-oxoethyl)piperidin-1-yl)-2,6-difluorophenyl)piperidine-2,6-dione]
DTC Dmax (%) [2]: 89.85%

Dmax [1]: 83.8%
DC50 [1]: 17 nM
DC50 [2]: 6.02 nM
Structure (SMILES): CCc1cc(Nc2ncc(Br)c(Nc3ccc4nccnc4c3P(C)(C)=O)n2)c(OC)cc1N1CCC(N2CCN(C3CN(c4cc(F)c(C5CCC(=O)NC5=O)c(F)c4)C3)CC2)CC1 (centres unmarked) [Example 302, 3-(4-(3-(4-(1-(4-((5-bromo-4-((5-(dimethylphosphoryl)quinoxalin-6-yl)amino)pyrimidin-2-yl)amino)-2-ethyl-5-methoxyphenyl)piperidin-4-yl)piperazin-1-yl)azetidin-1-yl)-2,6-difluorophenyl)piperidine-2,6-dione]
DTC Dmax (%) [2]: 88.36%

Dmax [1]: 91.3%
DC50 [1]: 22.7 nM
DC50 [2]: 15.2 nM
Structure (SMILES): CCc1cc(Nc2ncc(Br)c(Nc3ccc4nc(C)ccc4c3P(C)(C)=O)n2)c(OC)cc1N1CCC(N2CCN(C(=O)C3CN(CCc4cc(F)c(C5CCC(=O)NC5=O)c(F)c4)C3)CC2)CC1 (centres unmarked) [Example 708, 3-(4-(2-(3-(4-(1-(4-((5-bromo-4-((5-(dimethylphosphoryl)-2-methylquinolin-6-yl)amino)pyrimidin-2-yl)amino)-2-ethyl-5-methoxyphenyl)piperidin-4-yl)piperazine-1-carbonyl)azetidin-1-yl)ethyl)-2,6-difluorophenyl)piperidine-2,6-dione]
DTC Dmax (%) [2]: 81.62%

Dmax [1]: 90.4%
DC50 [1]: 72.9 nM
DC50 [2]: 30.6 nM
Structure (SMILES): CCc1cc(Nc2ncc(Br)c(Nc3ccc4nc(C)ccc4c3P(C)(C)=O)n2)c(OC)cc1N1CCC(N2CCN(CCC3CCN(c4ccc5nn(C6CCC(=O)NC6=O)cc5c4)CC3)CC2)CC1 (centres unmarked) [Example 719, 3-(5-(4-(2-(4-(1-(4-((5-bromo-4-((5-(dimethylphosphoryl)-2-methylquinolin-6-yl)amino)pyrimidin-2-yl)amino)-2-ethyl-5-methoxyphenyl)piperidin-4-yl)piperazin-1-yl)ethyl)piperidin-1-yl)-2H-indazol-2-yl)piperidine-2,6-dione]
DTC Dmax (%) [2]: 84.38%
